Experimental data as given in PMC5514931, “Repositioning chlorpromazine for treating chemoresistant glioma through the inhibition of cytochrome c oxidase bearing the COX4-1 regulatory subunit” (Oncotarget, 2017).

Tests used:
[1] = biological target: T1, cytochrome c oxidase (CcO, complex IV), purified from bovine heart; COX4-1 the most abundant COX4 isoform (Bos taurus, UniProt P00396+P00423); experiment: inhibition of purified CcO activity, dose-response; type: biochemical
T1 construct: gene COX4I1; purified CcO from bovine heart (Sigma-Aldrich C5499), whole multi-subunit complex; with COX1 and the other CcO subunits

[2] = biological target: T2, cytochrome c oxidase (CcO, complex IV) bearing the COX4-1 regulatory subunit (Homo sapiens, UniProt P00395+P13073); experiment: CcO activity and Michaelis-Menten kinetics in mitochondrial extracts; type: biochemical
T2 construct: gene COX4I1; CcO in mitochondrial extracts of UTMZ, U251-TgCOX4-1 (FLAG-tagged COX4-1) and GSC (J × 12, J × 39) cells; with COX1 and the other CcO subunits
T2 sequence (P00414 whole entry): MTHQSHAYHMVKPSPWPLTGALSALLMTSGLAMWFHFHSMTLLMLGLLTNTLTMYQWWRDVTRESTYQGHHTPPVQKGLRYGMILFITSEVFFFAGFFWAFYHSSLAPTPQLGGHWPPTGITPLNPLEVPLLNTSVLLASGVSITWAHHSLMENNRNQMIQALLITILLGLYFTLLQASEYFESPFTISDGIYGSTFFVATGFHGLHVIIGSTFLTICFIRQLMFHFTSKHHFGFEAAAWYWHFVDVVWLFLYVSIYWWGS
T2 sequence (P00403 whole entry, further chain): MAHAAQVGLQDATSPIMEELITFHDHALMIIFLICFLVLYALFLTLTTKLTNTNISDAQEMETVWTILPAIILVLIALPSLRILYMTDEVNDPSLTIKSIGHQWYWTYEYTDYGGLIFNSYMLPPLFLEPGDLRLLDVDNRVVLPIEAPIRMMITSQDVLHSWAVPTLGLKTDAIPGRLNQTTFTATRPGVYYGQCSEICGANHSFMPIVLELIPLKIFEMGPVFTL
T2 sequence (P13073 23-169): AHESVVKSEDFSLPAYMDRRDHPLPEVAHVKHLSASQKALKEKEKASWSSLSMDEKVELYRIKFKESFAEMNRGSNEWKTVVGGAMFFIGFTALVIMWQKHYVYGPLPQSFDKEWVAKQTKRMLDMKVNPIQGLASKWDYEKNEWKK

IC50 [1]: 25.8 ± 3.75 µM
IC50 [2]: ~2 µM
SMILES: CN(C)CCCN1c2ccccc2Sc2ccc(Cl)cc21 [CPZ, Chlorpromazine]
